The results in this text go back to US11918650B2, “Pharmaceutical composition comprising bispecific antibody constructs for improved storage and administration” (AMGEN INC., priority 2017, dated 2024).

Data set [1] concerns CD19×CD3 bispecific antibody construct. Nature of the data set: Preservative compatibility, percent HMW species by SEC-HPLC at pH 4. Particulars: CD19×CD3 bispecific antibody construct 0.8 mg/mL, 10 mM glutamate pH 4.0, 9% sucrose, 0.01% polysorbate 80; preservative conc. of Table 4; 25° C., 14 days. It counts as physicochemical. The procedure: In order to investigate the compatibility of known preservatives with a representative bispecific antibody construct according to the present invention, CD19×CD3 bispecific antibody construct was formulated in the presence of respective known preservatives with parameters as set out in Table 4.
The chosen preservative concentrations reflected standard concentrations employed in the art. The respective formulations were stored at 25° C. for 14 days and examined on day 0, 1, 3, 7 and 14 by size exclusion chromatography (SEC-HPLC).

The subject of data set [2] is CD19×CD3 bispecific antibody constructs. Nature of the data set: Denaturation assay (guanidinium chloride) with fluorescence detection. It counts as physicochemical. Particulars: 2.5 hours at 25° C., pH 7; excitation 280 nm, emission 300 to 400 nm. The procedure: FIG. 4: Denaturation diagram of CD19×CD3 bispecific antibody constructs at a concentration of 1 mg/ml in presence or absence of preservative benzyl alcohol as determined by fluorescence spectrometry […].
Improved stability of a representative bispecific antibody construct of the present invention conferred by a preservative such as benzyl alcohol was further examined by a denaturation assay using fluorescence as detection means. Experimental conditions comprised guanidinium chloride as denaturant which concentration was plotted on the x-axis (see FIG. 4). Incubation time was 2.5 hours at 25° C. at near-physiologic pH 7. Fluorescence excitation was set to 280 nm and the emission scan was run from 300 to 400 nm. The percentile denaturated fraction was calculated from the fluoresces assay as standard in the art. The result can be seen in FIG. 4. The grey curve represents the formulation comprising benzyl alcohol, the black curve the formulation without preservative. […] This means that it takes more denaturant to unfold this region, i.e. the CD3 domain, which translates into improved stability conferred by the preservative.

Data set [3] relates to Candida albicans (ATCC 10231). Nature of the data set: Microbial challenge study in IV bags. It is filed as cell-based. Conditions: all three levels of BeOH (0.5%, 0.6%, 0.74%) in blinatumomab infusion solution; 20-25° C. The procedure:
(§1) This example was a microbial challenge study in support of CD19×CD3 bispecific antibody construct drug product (DP) administered via an intravenous (IV) bag. The study was performed to evaluate the ability of different concentrations (0.5%-0.74%) of benzyl alcohol (BeOH) to reduce or eliminate microbial growth in IV bags holding blinatumomab infusion solution containing benzyl alcohol, CD19×CD3 bispecific antibody construct DP, and intravenous solution stabilizer (IVSS) kept at 20-25° C. for up to 14 days.
(§2) The study was carried out to evaluate the growth of six different microorganisms in IV bags filled with 109 mL of CD19×CD3 bispecific antibody construct infusion solution containing benzyl alcohol (BeOH, at a final concentration of 0.0%, 0.5%, 0.6% or 0.74%), CD19×CD3 bispecific antibody construct DP, and IVSS. The prepared IV bags were held at 20-25° C. for up to 14 days.
(§3) The bacteria and yeast selected for the study are representative of known human pathogens commonly isolated from nosocomial infections. These microorganisms include Candida albicans (ATCC 10231), Enterobacter cloacae (ATCC 13047), Escherichia coli (ATCC 8739), Micrococcus luteus (ATCC 4698), Pseudomonas aeruginosa (ATCC 9027), and Staphylococcus aureus (ATCC 6538).
(§4) Test Articles: The test articles assessed in the study were blinatumomab infusion solution filled in IV bags containing 1.91 μg/mL conc. blinatumomab in a total volume of 109 mL/bag. The solution was made up by the addition of 2.2 mL IVSS, 16.8 mL of pooled reconstituted blinatumomab DP (210 μg), and a combined total volume of 90 mL of saline solution and saline solution with 0.9% benzyl alcohol (basaline). The four different levels of BeOH (0.0%, 0.5%, 0.6% and 0.74%) assessed in the study were achieved by adding different amounts of saline and basaline. For example, the bag with 0.0% BeOH (positive control) was prepared by adding 90 mL of saline, while the bag with 0.6% BeOH was prepared by adding 18 mL saline and 72 mL 0.9% bsaline, to the 2.2 mL IVSS and 16.8 mL blinatumomab DP. Refer to Appendix A for more details. Note that the illustration for 0.0% BeOH positive control in FIG. 1 (Schematic of IV Bag Preparation) of Appendix A of this report and in the same illustration in FIG. 4 of Appendix D inadvertently stated the final BeOH concentration to be 0.5%, instead of 0.0%. This is a typographic error and has no impact on the study outcome.
(§5) A total of 24 CD19×CD3 bispecific antibody construct infusion solution filled IV bags were assessed to evaluate the effect of four levels of benzyl alcohol on the aforementioned six different microorganisms (6×4=24). An approximate 1 mL of inoculum containing <1×10^4 CFU microbes was inoculated through the injection port into each bag that yielded an initial microbial load at ˜1×10^2 CFU/mL. After inoculation, the sampling port on the bag was cleaned with sterile IPA and the bag was mixed briefly and then incubated at 20-25° C.
(§6) Sampling and titration procedures: At each time point of 0-hour, 4-day, 8-day, 10-day, 12-day and 14 day, a 3 mL aliquot was collected from each assessed bag and titrated.
(§7) Sample titration was performed by membrane filtration in duplicate of 1 mL aliquots for each timed sample. Additional dilutions were performed to obtain countable results (<300 CFU/plate).

In data set [4] the test system is Enterobacter cloacae (ATCC 13047). Nature of the data set: Microbial challenge study in IV bags. It is filed as cell-based. Particulars: 20-25° C. The procedure: as §1, §2, §3, §4, §5, §6, §7
Data set [5] has as its system Escherichia coli (ATCC 8739). As to the kind of experiment: Microbial challenge study in IV bags. It counts as cell-based. Particulars: 20-25° C. The procedure:
as §1, §2, §3, §4, §5, §6, §7

Data set [6] deals with Micrococcus luteus (ATCC 4698). Nature of the data set: Microbial challenge study in IV bags. Conditions: 20-25° C. It is filed as cell-based. The procedure:
as §1, §2, §3, §4, §5, §6, §7

Data set [7] deals with Pseudomonas aeruginosa (ATCC 9027). Nature of the data set: Microbial challenge study in IV bags. It is filed as cell-based. Particulars: 20-25° C. The procedure:
as §1, §2, §3, §4, §5, §6, §7

Data set [8] deals with Staphylococcus aureus (ATCC 6538). Nature of the data set: Microbial challenge study in IV bags. Conditions: 20-25° C. It counts as cell-based. The procedure:
as §1, §2, §3, §4, §5, §6, §7

In data set [9] the test system is CDR-H3 region (YISYW) of anti-CD3 domain. As to the kind of experiment: Hydrogen-deuterium exchange (HDX) mass spectrometry, effects of citrate and benzyl alcohol. It is filed as physicochemical. Conditions: addition to Tris-phosphate pH 6.0, 50 mM citrate, 0.9% benzyl alcohol. An excerpt: Hydrogen-deuterium exchange (HDX) is a chemical reaction in which a covalently bonded hydrogen atom is replaced by a deuterium atom, or vice versa. It can be applied most easily to exchangeable protons and deuterons, where such a transformation occurs in the presence of a suitable deuterium source, without any catalyst. The method gives information about the solvent accessibility of various parts of the molecule, and thus the tertiary structure of the protein.
Model anti-FAPα domain, isolated anti-CD3 domain (I2C, as typically used throughout all example bispecific antibody constructs), CD33×CD3 bispecific antibody construct and EGFRvIII×CD3 bispecific antibody construct were examined. For FAPα, anti-CD3 domain, and CD33×CD3 bispecific antibody construct, the experimental procedure was same. Firstly, the protein samples were dialyzed into Tris-phosphate buffer (35 mM Tris, 17.5 mM phosphate, pH 6.0) and (35 mM Tris, 17.5 mM phosphate, 50 mM citrate, pH 6.0), respectively. The protein concentration was adjusted to 0.3 mg/mL after dialysis. […] Thirdly, the HDX reaction was quenched after 10s, 1 min, 10 min, 1 hr, 4 hr, and 12 hr, and then the quenched protein samples were analyzed by mass spectrometry. […] Thirdly, the HDX reaction was quenched after 10s, 10 min, 2 hr, 8 hr, 16 hr, 24 hr, and then the quenched protein samples were analyzed by mass spectrometry. […]

The nature of data set [10]: Frozen stability at −20° C. over 4 weeks, HMW species (FIG. 9, 10). It counts as physicochemical. Conditions: DLL3×CD3, pH 4.
Setting [11] is: 0.5%, 0.6% and 0.74% BeOH in blinatumomab infusion solution, inoculum 100 CFU/mL.
Setting [12] is: all three assessed concentrations (0.5%, 0.6%, 0.74%), up to 14 days.
The mark [13] stands for this setting: 0.5% or 0.6% BeOH in blinatumomab infusion solution.
[14] abbreviates: 0.74% BeOH in blinatumomab infusion solution.

Take `C[CH2][Hg][S]c1ccccc1C(=O)[O-].[Na+]` [Thimerosal, thimerosal]: in data set [1], the “percent high molecular weight (HMW) species over time” value (from here on “percent high molecular weight”) is reported as “slight increase in HWM over time”.

For `OCc1ccccc1` [benzyl alcohol], the “denaturation curve (denaturated fraction vs guanidinium chloride) with benzyl alcohol versus without preservative” value in [2] was “shift to the right in the bottom portion of the curve”. Also, in data set [3], the “day on which challenged C. albicans was unrecoverable” value came out at 8 days. For the same molecule, in [4] (setting [11]), the “day from which no E. cloacae was recoverable” value came out at 10 days. In addition, the “growth of E. cloacae” value in data set [4] (setting [12]) was “completely inhibited”. For the same molecule, the “day from which no E. coli was recoverable” value in data set [5] (setting [11]) was determined as 10 days. In addition, the “growth of E. coli” value in data set [5] (setting [12]) was “completely inhibited”. Besides, the “day on which challenged M. luteus was unrecoverable” value in data set [6] (setting [13]) amounted to 14 days; in [6] (setting [14]), 8 days. In addition, in data set [7] (setting [11]), the “day from which no P. aeruginosa was recoverable” value was 4 days. In data set [7] (setting [12]), the “growth of P. aeruginosa” value is on record as “completely inhibited”. Moreover, the “day on which challenged S. aureus inoculum became unrecoverable” value in data set [8] (setting [13]) was 8 days; in data set [8] (setting [14]), 4 days. Further, the “conformational dynamics of the region of residues 366-370 (YISYW) versus formulation of Tris-phosphate” value in [9] was “increases the conformational dynamics of this region”. For the same molecule, in data set [10], the “benzyl alcohol concentration at which stabilizing effect on frozen stability is best” value is recorded as “above 0.1%”.

As to `O=C(O)CC(O)(CC(=O)O)C(=O)O` [citrate], the “conformational dynamics of the region of residues 366-370 (YISYW) versus formulation of Tris-phosphate” value in [9] was “reduces the conformational dynamics of this region”.

Turning to `COC(=O)c1ccc(O)cc1` [methylparabene, methylparaben], in data set [1], the “percent high molecular weight” value is given as “decrease in the percent high molecular weight (HMW) species over time”.

Consider `Oc1ccccc1` [phenol], for which the “percent high molecular weight” value in data set [1] is “HMW values overall remain constant”.
